Laboratory results: ChEMBL document CHEMBL1201862, “PubChem BioAssay data set” (2004)
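Cultured in 96-well plates, cells were exposed to test compound for 48 hours across five concentrations. At the GI50, growth is halved.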 Calls of active or inactive are those of the source. Rule as the data show it: active = GI50 up to about 1.1 µM and inactive = higher.

Columns and labels:
Assay in all cases: NCI-60 cell line screen, 48 h
786-0 = test system: 786-0
A498 = test system: A498
ACHN = test system: ACHN
CAKI-1 = test system: CAKI-1
COLO 205 = test system: COLO 205
EKVX = test system: EKVX
HCC 2998 = test system: HCC 2998
HOP-62 = test system: HOP-62
Hs-578T = test system: Hs-578T
NCI-H522 = test system: NCI-H522
OVCAR-4 = test system: OVCAR-4
PC-3 = test system: PC-3
RXF 393 = test system: RXF 393
SF-295 = test system: SF-295
SK-MEL-5 = test system: SK-MEL-5
SNB-19 = test system: SNB-19
UACC-62 = test system: UACC-62
UO-31 = test system: UO-31

SMILES | GI50 (786-0) | GI50 (A498) | GI50 (ACHN) | GI50 (CAKI-1) | GI50 (COLO 205) | GI50 (EKVX) | GI50 (HCC 2998) | GI50 (HOP-62) | GI50 (Hs-578T) | GI50 (NCI-H522) | GI50 (OVCAR-4) | GI50 (PC-3) | GI50 (RXF 393) | GI50 (SF-295) | GI50 (SK-MEL-5) | GI50 (SNB-19) | GI50 (UACC-62) | GI50 (UO-31)
Cc1ccc(S(=O)(=O)NNC(C[N+](=O)[O-])c2ccccc2)cc1 (centres undefined) | 22.6 µM (inactive) | 16.1 µM (inactive) | 16.1 µM (inactive) | 22.5 µM (inactive) | 14.4 µM (inactive) | 75.5 µM (inactive) | 2.9 µM (inactive) | 26.7 µM (inactive) | 44.4 µM (inactive) | 23.4 µM (inactive) | 15.8 µM (inactive) | 57.9 µM (inactive) | 2.94 µM (inactive) | 21.3 µM (inactive) | 19.4 µM (inactive) | 7.14 µM (inactive) | 26.1 µM (inactive) | 22.3 µM (inactive)
CNNC1=NS(=O)(=O)c2cc(C(=O)OC)c(Cl)cc2S1 | > 10 µM (inactive) | > 10 µM (inactive) | > 10 µM (inactive) | > 10 µM (inactive) | > 10 µM (inactive) | > 10 µM (inactive) | > 10 µM (inactive) | > 10 µM (inactive) | > 10 µM (inactive) | > 10 µM (inactive) | > 10 µM (inactive) | > 10 µM (inactive) | > 10 µM (inactive) | > 10 µM (inactive) | > 10 µM (inactive) | > 10 µM (inactive) | > 10 µM (inactive) | 0.001 µM (active)
CCCCN(C)C(=O)C1=C(C)NC(C)=C(C(=O)N(C)CCCC)C1 | > 100 µM (inactive) | > 100 µM (inactive) | > 100 µM (inactive) | > 100 µM (inactive) | > 100 µM (inactive) | > 100 µM (inactive) | > 100 µM (inactive) | > 100 µM (inactive) | > 100 µM (inactive) | > 100 µM (inactive) | > 100 µM (inactive) | > 100 µM (inactive) | > 100 µM (inactive) | > 100 µM (inactive) | > 100 µM (inactive) | > 100 µM (inactive) | > 100 µM (inactive) | 61.1 µM (inactive)
CCC1(C)C=Cc2c(cc(O)c3c(=O)c4ccccc4n(C)c23)O1 (centres undefined) | > 10 µM (inactive) | > 10 µM (inactive) | > 10 µM (inactive) | 3.26 µM (inactive) | > 10 µM (inactive) | > 10 µM (inactive) | > 10 µM (inactive) | > 10 µM (inactive) | > 10 µM (inactive) | > 10 µM (inactive) | > 10 µM (inactive) | > 10 µM (inactive) | > 10 µM (inactive) | > 10 µM (inactive) | > 10 µM (inactive) | > 10 µM (inactive) | > 10 µM (inactive) | > 10 µM (inactive)
CC1(C)CCCC(C)(C2CCC3(C)C2C(O)CC2C4(C)CCC(O)C(C)(C)C4CCC23C)O1 (centres undefined) | 75.7 µM (inactive) | > 100 µM (inactive) | 56.9 µM (inactive) | 42.7 µM (inactive) | 80.2 µM (inactive) | > 100 µM (inactive) | > 100 µM (inactive) |  | 20.7 µM (inactive) | 75.5 µM (inactive) | 66.2 µM (inactive) | > 100 µM (inactive) | 3.72 µM (inactive) | 52.1 µM (inactive) | 47.8 µM (inactive) | 42.6 µM (inactive) | > 100 µM (inactive) | > 100 µM (inactive)
